We go through seven compounds from patent publication US10004701B2, “Methods and compositions for treating infection” (UNIVERSITY OF ROCHESTER, priority 2012, dated 2018).

Counter-ions that a name gives are not always drawn. Like-named read-outs stand apart in the source and are kept apart here.

What all share (assay): AK assay 384-well format, Prestwick library screening
Assay [1] concerns S. aureus strain USA300-0114. The assay is classed as cell-based, Staphylococcus aureus. As to conditions: 50 μM final drug concentration; for fold induction at 50 µM: Staphylococcus aureus, USA300, 3 h.
The test system of assay [2] is A. baumannii strain 98-37-09. It is filed as cell-based, Acinetobacter baumannii. The settings on record: 50 μM final drug concentration; for fold induction at 50 µM: Acinetobacter baumannii, 983709, 3 h.
Assay [3] has as its system P. aeruginosa. It is filed as cell-based, Pseudomonas aeruginosa. The settings on record: 50 μM final drug concentration; for fold induction at 50 µM: Pseudomonas aeruginosa, 3 h.
The test system of assay [4] is E. coli. The assay is classed as cell-based, Escherichia coli. As to conditions: 50 μM final drug concentration; for fold induction at 50 µM: Escherichia coli, 3 h.
Assay [5] deals with E. faecium. It is filed as cell-based, Enterococcus faecium. As to conditions: 50 μM final drug concentration; for fold induction at 50 µM: Enterococcus faecium, 3 h.
In assay [6] the test system is K. pneumoniae. It is filed as cell-based, Klebsiella pneumoniae. As to conditions: 50 μM final drug concentration; for fold induction at 50 µM: Klebsiella pneumoniae, 3 h.
The subject of assay [7] is E. cloacae. The assay is classed as cell-based, Enterobacter cloacae. The settings on record: 50 μM final drug concentration; for fold induction at 50 µM: Enterobacter cloacae, 3 h.
Setting [8] is: 384-well format, cutoff for positive-scoring molecules 3-fold increase, read-out: AK-based Prestwick Library Screening Results, S. aureus (increase in extracellular AK activity).
[9] abbreviates: 384-well format, cutoff for positive-scoring molecules 3-fold increase, read-out: AK-based Prestwick Library Screening Results, A. baumannii (increase in extracellular AK activity).
The mark [10] stands for this setting: 384-well format, cutoff for positive-scoring molecules 3-fold increase, read-out: AK-based Prestwick Library Screening Results, P. aeruginosa (increase in extracellular AK activity).
The mark [11] stands for this setting: 384-well format, cutoff for positive-scoring molecules 3-fold increase, read-out: AK-based Prestwick Library Screening Results, E. coli (increase in extracellular AK activity).
Setting [12] is: 384-well format, cutoff for positive-scoring molecules 3-fold increase, read-out: AK-based Prestwick Library Screening Results, E. faecium (increase in extracellular AK activity).
The mark [13] stands for this setting: 384-well format, cutoff for positive-scoring molecules 3-fold increase, read-out: AK-based Prestwick Library Screening Results, K. pneumoniae (increase in extracellular AK activity).
The mark [14] stands for this setting: 384-well format, cutoff for positive-scoring molecules 3-fold increase, read-out: AK-based Prestwick Library Screening Results, E. cloacae (increase in extracellular AK activity).

Turning to `CN(C)CCCN1c2ccccc2CCc2ccc(Cl)cc21` [Clomipramine hydrochloride], the fold induction at 50 µM was 0.8 in assay [1] (setting [8]); 1 in assay [2] (setting [9]); 0.9 in assay [3] (setting [10]); 1.1 in assay [4] (setting [11]); 1.1 in assay [5] (setting [12]); 0.7 in assay [6] (setting [13]). Moreover, the fold induction at 50 µM in assay [7] (setting [14]) was determined as 1.

For the compound `COc1c(O)cc2c(c1O)[C@@H]1O[C@H](CO)[C@@H](O)[C@H](O)[C@H]1OC2=O` [Bergenin monohydrate], the fold induction at 50 µM in assay [1] (planktonic, cutoff for positive-scoring molecules 3-fold increase, read-out: AK-based Prestwick Library Screening Results, S. aureus (fold increase in extracellular AK activity)) turned out to be 0.9; in assay [2] (planktonic, cutoff for positive-scoring molecules 3-fold increase, read-out: AK-based Prestwick Library Screening Results, A. baumannii (fold increase in extracellular AK activity)), 0.9; in assay [3] (planktonic, cutoff for positive-scoring molecules 3-fold increase, read-out: AK-based Prestwick Library Screening Results, P. aeruginosa (fold increase in extracellular AK activity)), 0.8; in assay [4] (planktonic, cutoff for positive-scoring molecules 3-fold increase, read-out: AK-based Prestwick Library Screening Results, E. coli (fold increase in extracellular AK activity)), 0.7; in assay [5] (planktonic, cutoff for positive-scoring molecules 3-fold increase, read-out: AK-based Prestwick Library Screening Results, E. faecium (fold increase in extracellular AK activity)), 0.9; in assay [6] (planktonic, cutoff for positive-scoring molecules 3-fold increase, read-out: AK-based Prestwick Library Screening Results, K. pneumoniae (fold increase in extracellular AK activity)), 0.8. Besides, in assay [7] (planktonic, cutoff for positive-scoring molecules 3-fold increase, read-out: AK-based Prestwick Library Screening Results, E. cloacae (fold increase in extracellular AK activity)), the fold induction at 50 µM was found to be 1.1.

With `CC(=O)c1ccc2c(c1)N(CCCN(C)C)c1ccccc1S2.O=C(O)/C=C\C(=O)O` [Acetopromazine maleate salt], the “AK-based Prestwick Library Screening Results, S. aureus (increase in extracellular AK activity)” value in assay [1] (planktonic S. aureus, cutoff for positive-scoring molecules 3-fold increase) stood at 0.8. For the same compound, in assay [2] (planktonic A. baumannii, cutoff for positive-scoring molecules 3-fold increase), the “AK-based Prestwick Library Screening Results, A. baumannii (increase in extracellular AK activity)” value was 0.8. Besides, in assay [3] (planktonic P. aeruginosa, cutoff for positive-scoring molecules 3-fold increase), the “AK-based Prestwick Library Screening Results, P. aeruginosa (increase in extracellular AK activity)” value turned out to be 0.7. Further, the “AK-based Prestwick Library Screening Results, E. coli (increase in extracellular AK activity)” value in assay [4] (planktonic E. coli, cutoff for positive-scoring molecules 3-fold increase) was found to be 0.8. In addition, the “AK-based Prestwick Library Screening Results, E. faecium (increase in extracellular AK activity)” value in assay [5] (planktonic E. faecium, cutoff for positive-scoring molecules 3-fold increase) was 1.0. Besides, the “AK-based Prestwick Library Screening Results, K. pneumoniae (increase in extracellular AK activity)” value in assay [6] (planktonic K. pneumoniae, cutoff for positive-scoring molecules 3-fold increase) is 0.6. The “AK-based Prestwick Library Screening Results, E. cloacae (increase in extracellular AK activity)” value in assay [7] (planktonic E. cloacae, cutoff for positive-scoring molecules 3-fold increase) is on record as 0.8.

Consider `Clc1ccc(C(Cn2ccnc2)OCc2csc3c(Cl)cccc23)c(Cl)c1` (stereo not shown) [Sertaconazole nitrate], for which the fold induction at 50 µM in assay [1] (cutoff for positive-scoring molecules 3-fold increase, read-out: AK-based Prestwick Library Screening Results, S. aureus (fold increase in extracellular AK activity)) was found to be 0.7; in assay [2] (cutoff for positive-scoring molecules 3-fold increase, read-out: AK-based Prestwick Library Screening Results, A. baumannii (fold increase in extracellular AK activity)) it was 2.4; in assay [3] (cutoff for positive-scoring molecules 3-fold increase, read-out: AK-based Prestwick Library Screening Results, P. aeruginosa (fold increase in extracellular AK activity)) it was 0.5; in assay [4] (cutoff for positive-scoring molecules 3-fold increase, read-out: AK-based Prestwick Library Screening Results, E. coli (fold increase in extracellular AK activity)), 0.7; in assay [5] (cutoff for positive-scoring molecules 3-fold increase, read-out: AK-based Prestwick Library Screening Results, E. faecium (fold increase in extracellular AK activity)) it was 2.8; in assay [6] (cutoff for positive-scoring molecules 3-fold increase, read-out: AK-based Prestwick Library Screening Results, K. pneumoniae (fold increase in extracellular AK activity)) it was 0.7. Besides, the fold induction at 50 µM in assay [7] (cutoff for positive-scoring molecules 3-fold increase, read-out: AK-based Prestwick Library Screening Results, E. cloacae (fold increase in extracellular AK activity)) is 0.4.

Regarding `Clc1ccc(C(Cn2ccnc2)OCc2c(Cl)cccc2Cl)c(Cl)c1` (stereo not shown) [Isoconazole], the fold induction at 50 µM came out at 5.2 in assay [1] (setting [8]); 5.6 in assay [2] (setting [9]); 1.3 in assay [3] (setting [10]); 1.8 in assay [4] (setting [11]); 1.8 in assay [5] (setting [12]); 1.4 in assay [6] (setting [13]). Moreover, the fold induction at 50 µM in assay [7] (setting [14]) was found to be 1.7.

As to `CCOC(=O)[C@@](C)(N)Cc1ccc(O)c(O)c1` [Methyldopate hydrochloride], the fold induction at 50 µM in assay [1] (planktonic S. aureus, positive cutoff 3-fold increase, read-out: AK-based Prestwick library screening result, S. aureus (fold increase in extracellular AK activity)) came out at 1.2; in assay [2] (planktonic A. baumannii, positive cutoff 3-fold increase, read-out: AK-based Prestwick library screening result, A. baumannii (fold increase in extracellular AK activity)), 1.4; in assay [3] (planktonic P. aeruginosa, positive cutoff 3-fold increase, read-out: AK-based Prestwick library screening result, P. aeruginosa (fold increase in extracellular AK activity)) it was 1.1; in assay [4] (planktonic E. coli, positive cutoff 3-fold increase, read-out: AK-based Prestwick library screening result, E. coli (fold increase in extracellular AK activity)), 1.2; in assay [5] (planktonic E. faecium, positive cutoff 3-fold increase, read-out: AK-based Prestwick library screening result, E. faecium (fold increase in extracellular AK activity)), 1.1; in assay [6] (planktonic K. pneumoniae, positive cutoff 3-fold increase, read-out: AK-based Prestwick library screening result, K. pneumoniae (fold increase in extracellular AK activity)), 1.2. The fold induction at 50 µM in assay [7] (planktonic E. cloacae, positive cutoff 3-fold increase, read-out: AK-based Prestwick library screening result, E. cloacae (fold increase in extracellular AK activity)) is 1.8.

Turning to `Cc1cc(-c2ccccc2)nnc1NCCN1CCOCC1` [Minaprine dihydrochloride], the fold induction at 50 µM in assay [1] (planktonic S. aureus, 384-well, cutoff for positive-scoring molecules 3-fold increase, read-out: AK-based Prestwick Library Screening Results: S. aureus (increase in extracellular AK activity)) amounted to 1; in assay [2] (planktonic A. baumannii, 384-well, cutoff for positive-scoring molecules 3-fold increase, read-out: AK-based Prestwick Library Screening Results: A. baumannii (increase in extracellular AK activity)), 1.3; in assay [3] (planktonic P. aeruginosa, 384-well, cutoff for positive-scoring molecules 3-fold increase, read-out: AK-based Prestwick Library Screening Results: P. aeruginosa (increase in extracellular AK activity)), 1.1; in assay [4] (planktonic E. coli, 384-well, cutoff for positive-scoring molecules 3-fold increase, read-out: AK-based Prestwick Library Screening Results: E. coli (increase in extracellular AK activity)) it was 1.3; in assay [5] (planktonic E. faecium, 384-well, cutoff for positive-scoring molecules 3-fold increase, read-out: AK-based Prestwick Library Screening Results: E. faecium (increase in extracellular AK activity)) it was 0.8; in assay [6] (planktonic K. pneumoniae, 384-well, cutoff for positive-scoring molecules 3-fold increase, read-out: AK-based Prestwick Library Screening Results: K. pneumoniae (increase in extracellular AK activity)), 0.9. Further, the fold induction at 50 µM in assay [7] (planktonic E. cloacae, 384-well, cutoff for positive-scoring molecules 3-fold increase, read-out: AK-based Prestwick Library Screening Results: E. cloacae (increase in extracellular AK activity)) is 1.3.
